Results taken from US7157477B2, “Aliphatic amino-substituted demethoxylated hypocrellins and their synthesis” (Altachem Pharma Ltd., priority 2000, dated 2007).
“Also recorded” adds a separate entry of the source.

Experiments:
HeLa cells [1] = assay: Hoechst 33342 nuclear staining for apoptotic nuclei; assay type: cell-based
Procedure: Treated and control cells were incubated in DMEM with 0.5% FBS for 24 h at 37° C., then collected by detachment and centrifugation and incubated in a growth medium (FBS free) containing 5 μM H0342 for 5 min at 37° C. Nuclear fragmentation was assessed by fluorescence microscopy using Nikon FxA microscope. The EX wavelength was 330–380 nm with EM monitored at 420–450 nm.

HeLa cells [2] = assay: Dark toxicity, MTT assay; assay type: cell-based; conditions: HB 15 min, 2-BA-2-DMHB 6 h; highest concentration tested 100 μM
Procedure: The dark toxicity characteristic of each compound was assessed separately following a similar procedure for cell exposure to graded doses of […] for 15 min or 2-BA-2-DMHB for 6 h. Precautions were taken to avoid exposure of the cells to light throughout the period when'the cells were exposed to, or contained, photosensitizers.

[3] = Superoxide anion radical generation by DMPO spin-trapping ESR; assay type: physicochemical; conditions: in DMSO, relative to HB
Procedure: (§1) Singlet oxygen yields were determined as previously reported by the DPA bleaching method. The electron spin resonance (ESR) measurement of, spin trapping of DMPO was used to determine the generation of O2 by hypocrellins.
DMPO spin-trapping ESR measurement was used here to verify the formation of superoxide anion radical generated by photosensitization of HB and 2-BA-2-DMHB.

HeLa cells [4] = assay: Distribution ratio (cellular uptake by fluorescence); assay type: cell-based; conditions: for distribution ratio [Sen/g cells]/[Sen/ml medium]: extra-cellular drug 0 to 5 μM, HB 15 min, 2-BA-2-DMHB 6 h, 37° C.
Procedure: HeLa cells were maintained as monolayer culture in DMEM containing 5% FBS and antibiotics PS (80 U/ml penicillin and 100 μg/ml streptomycin) at 37° C. in a humidified 5% CO2 incubator.
The distribution ratio or the photosensitizer is defined as [Sen/g cells]/[Sen/ml medium]. The values were measured as described previously. Exponentially growing cells were incubated in DMEM with HB for 15 min or with 2-BA-2-DMHB for 6 h at 37° C., ranging from 0 to 5 μM. […] The washed pellets (2×10^6) were dispersed in 3 ml of 10 mM Triton X-100 detergent. These solutions were excited at 460 nm and the fluorescence emission spectra were acquired using Hitachi-F4500 fluorescence spectrophotometer. Fluorescence at 610 nm was determined, corrected for the fluorescence of control (drug-free) sample, and compared with a standard fluorescence-intensity curve prepared with HB and 2-BA-2-DMHB solutions of known concentration.

HeLa cells [5] = conditions: for photopotentiation factor (LD50 dark / LD50 with 24 J cm−2 red light): MTT assay
Procedure: Stock sensitizer-DMSO solutions were diluted with DMEM containing 1% FBS. […] The cells were detached using 0.2% trypsin/0.5 mM EDTA solution in PBS and centrifuge-washed to remove unbound dyes. The cells were then transferred to 35-mm dishes (Costar)) 1 ml inch dish containing 3×10s cells, and irradiated with different doses of light. […] Immediately after irradiation, 2 ml DMEM containing 7.5% FBS was added to each dish. Then a portion of the cells was assessed for survival as follows and the rest were incubated in the medium until they could be checked for nucleus staining, DNA fragmentation and flow cytometry analysis.
Cell survival was estimated by the MTT assay [11,15,16]. PDT-treated cells were transferred into flat-bottomed 96-well plates (Costar) 100 μl in each well containing 1×10^4 cells and the cells were incubated at 37° C. in a. CO2, incubator for 20 h. Viability was determined by adding 10 μl MTT (10 mg ml^−1) to each well, and the mixture was incubated for 4 h at 37° C. Culture medium was then replaced with dimethylsulfoxide to dissolve the formazan crystals. […] Samples were measured in 12 replicates and each experiment was repeated at least twice. Survival of PDT-treated cells was normalized against cells incubated with photosensitizer alone.

[6] = Absorption spectra of photosensitizers in chloroform; assay type: physicochemical; conditions: for log6 at first band λmax / log6 at second band λmax / log6 at third band λmax / λmax (nm), first band / λmax (nm), second band / λmax (nm), third band: in chloroform
HeLa cells [7] = assay: DNA agarose gel electrophoresis (DNA ladder); assay type: cell-based; conditions: for DNA ladder, photosensitizer alone: 4 μM incubation, no light; for DNA ladder at early times: 3 and 6 h post-irradiation; for DNA ladder after photosensitization: 24 h after treatment at LD70 and LD90
Procedure: Stock sensitizer-DMSO solutions were diluted with DMEM containing 1% FBS. […] The cells were detached using 0.2% trypsin/0.5 mM EDTA solution in PBS and centrifuge-washed to remove unbound dyes. The cells were then transferred to 35-mm dishes (Costar)) 1 ml inch dish containing 3×10s cells, and irradiated with different doses of light. […] Immediately after irradiation, 2 ml DMEM containing 7.5% FBS was added to each dish.
The DNA was extracted as described previously [18] with some modification. Cells (2×106) were detached with the use of 0.2% trypsin/0.5 mM EDTA solution washed with PBS and pelleted by centrifugation. The cell pellets were suspended in lysis buffer consisting of 0.5% sodium dodecyl sulfate (SDS), 2 mM EDTA, 100 mg/ml proteinase K, and SO mM Tris-HC buffer (pH 8.0). After 24 h lysis at 37° C., the DNA was extracted with an equal volume of water-saturated phenol/chloroform/isoamyl alcohol (25:24:1). The aqueous phase was collected and DNA was precipitated with 0.5 volume ammonium acetate and 2.5 volumes cold absolute ethanol, and stored overnight at −20° C. The DNA was dissolved in TE (0.5 M EDTA in 1 M Tris-HCl buffer, pH 8.0) and incubated with DNase-free RNase A (100 mg/ml) at 37° C. for 1 h. The samples were electrophoresed for 3 h at 60 V in 1.5% agarose gel containing 0.5 μg ml^−1 ethidium bromide and visualized by UV transillumination.

HeLa cells [8] = assay: Flow cytometric detection of DNA fragmentation (PI staining); assay type: cell-based; conditions: for induction of apoptosis: evidenced by Hoechst staining, gel electrophoresis and flow cytometry; for hypoploid cell population: photosensitized cells
Procedure: Stock sensitizer-DMSO solutions were diluted with DMEM containing 1% FBS. […] The cells were detached using 0.2% trypsin/0.5 mM EDTA solution in PBS and centrifuge-washed to remove unbound dyes. The cells were then transferred to 35-mm dishes (Costar)) 1 ml inch dish containing 3×10s cells, and irradiated with different doses of light. The light source was a Red Light Treatment Instrument (Institute of Electronic Academia Sinica, China), Its total power output, more than 90% at 600–700 nm was 50 mW cm^2 at the position of the, samples, measured with BTY-8204 radiometer (Beijing Institute of Solar Energy, China). Immediately after irradiation, 2 ml DMEM containing 7.5% FBS was added to each dish. Then a portion of the cells was assessed for survival as follows and the rest were incubated in the medium until they could be checked for nucleus staining, DNA fragmentation and flow cytometry analysis.
A propidium iodide (PI) staining technique was used to assess the status of cellular DNA [19]. Cells were washed twice with ice-cold PBS and then permeabilized and fixed in 80% ethanol at 4° C. for 24 h. Cells were washed twice with PBS and suspended in PBS with RNase A (100 mg/ml) and incubated at 37° C. for 30 min. At this point the PI solution (10 mg/ml in PBS) was added to the cells in RNase solution, and the incubation was continued for 30 min at 4° C. After that, the cells were analyzed by Epics XL flow cytometer (Coulter, USA).

HeLa cells [9] = assay: Sensitizer localization by fluorescence microscopy; assay type: cell-based; conditions: 4 μM; HB 15 min, 2-BA-2-DMHB 6 h
Procedure: Cells growing on glass were incubated in DMEM with 4 μM HB for 15 min or with 4 μM 2-BA-2-DMHB for 6 h at 37° C. Fluorescence was visualized by Nikon FXA microscope to assess sites of sensitizer location (excitation=400–450 nm, emission=600–650 nm).

[10] = test system: EMT6 Ed mouse tumor cells; conditions: 24 J cm−2; Estey's results [8]; cited from earlier work
AIDS = conditions: cited from earlier work
[11] = in vivo; cited from earlier work
[12] = Singlet oxygen yield by DPA bleaching method; assay type: physicochemical; conditions: in DMSO
Procedure: as §1

SMILES	LD50 in the dark (HeLa cells [2])	distribution ratio [Sen/g cells]/[Sen/ml medium] (HeLa cells [4])	photopotentiation factor (LD50 dark / LD50 with 24 J cm−2 red light) (HeLa cells [5])	log6 at first band λmax [6]	log6 at second band λmax [6]	log6 at third band λmax [6]	λmax (nm), first band [6] [nm]	λmax (nm), second band [6] [nm]	λmax (nm), third band [6] [nm]	DNA ladder, photosensitizer alone (HeLa cells [7])	DNA ladder at early times (HeLa cells [7])	DNA ladder after photosensitization (HeLa cells [7])	induction of apoptosis (HeLa cells [8])	hypoploid cell population (HeLa cells [8]; LD90)	sites of sensitizer localization (HeLa cells [9])	toxicity in animals [11]	further results
CCCCNc1c(O)c2c(=O)cc(OC)c3c4c(OC)cc(=O)c5c(O)c(OC)c6c(c(c1C(C(C)=O)=C(C)C6)c23)c54 [Example 2-BA-2-DMHB, 2-butylamino-2-demethoxy-hypocrellin B]	more than 100 μM	107.2±4.3	more than 250 fold	4.06	4.09	4.10	463	583	621	No DNA ladder was observed	No obvious DNA ladder was detected	characteristic DNA ladder observed	induced apoptosis	appearance of hypoploid cell population	primarily at ER; also recorded: mainly localized at endoplasmic reticulum	–	nuclear morphology in the absence of light irradiation (HeLa cells [1]; 4 μM, 6 h, dark control): remained intact; apoptotic nuclei after photosensitization (HeLa cells [1]; LD70, 24 h post-irradiation): apoptotic nuclei were detected; Relative quantum yields (O2−) ([3]; listed as 2-BA-2-DMHD): 2.7; intra-cellular level relative to HB (HeLa cells [4]; equimolar levels of the drugs): approximately two fold as much as HB; also recorded: approximately two times as much as that of HB; photopotentiation relative to HB (HeLa cells [5]; in vitro): over 25 fold; concentration causing 50% cytotoxicity at light dose of 24 J cm−2 (HeLa cells [5]; red light 24 J cm−2): 0.25–0.5 FM; extinction coefficient at 583 nm relative to HB at 548 nm [6]: 2.5 fold; extinction coefficient at 621 nm relative to HB at 580 nm [6]: over 3.8 fold; speed of apoptosis induction (HeLa cells [8]; post-irradiation, LD90): induced apoptosis more quickly than HB
COc1c(O)c2c(=O)cc(OC)c3c4c(OC)cc(=O)c5c(O)c(OC)c6c(c(c1CC(C)=C6C(C)=O)c23)c54 [HB, 3,10-dihydroxyl-4,9-dione-1,12-(2′-methyl-3′-actyl-2′,3′-dehydro)propilidene(1′,3′)-2,6,7,11-tetramethoxyl-perylene, reference compound]	about 20 μM	49.1±2.2	10 fold	4.06	3.70	3.52	466	548	580	No DNA ladder was observed	No obvious DNA ladder was detected	characteristic DNA ladder observed	induced apoptosis	appearance of hypoploid cell population	prominent lysosomal uptake, and endoplasmic reticulum (ER) staining; also recorded: mainly localized at lysosomal and endoplasmic reticulum	low toxicity	photopotentiation factor [10]: 10; Relative quantum yields (O2−) [3]: 1; anti-AIDS action (AIDS): distinct anti-AIDS action; Quantum yields (1O2), singlet oxygen yield [12]: 0.76
COc1c(O)c2c(=O)cc(OC)c3c4c(OC)cc(=O)c5c(O)c(OC)c6c(c(c1CC(C)(O)C6C(C)=O)c23)c54 (stereo not drawn) [hypocrellin A, 3,10-dihydroxyl-4,9-dione-1,12-(2′-hydroxyl-2′-methyl-3′-actyl)propilidene(1′,3′)-2,6,7,11-tetramethoxyl-perylene]	–	–	–	–	–	–	–	–	–	–	–	–	–	–	–	low toxicity	–
